Literature values as cited in patent US5925665A, “Imidazoline compounds” (Adir Et Compagnie, priority 1996, dated 1999).

Tested on: mice
Conditions: general statement on reference products

Structure (SMILES) | duration of immobility, known antidepressants
CNCCCN1c2ccccc2CCc2ccccc21 [desipramine] | decrease this duration of immobility
CN(C)CCCN1c2ccccc2CCc2ccccc21 [imipramine] | decrease this duration of immobility
